Experimental data: the METLIN SMRT retention time set (Domingo-Almenara et al. 2019)

Assay: gradient 5% acetonitrile 3 min, to 50% in 2 min, to 85% in 15 min, held 3 min, 100 µL/min
Conditions: column: Zorbax Extend-C18 2.1 x 50 mm; eluents: water / acetonitrile, 0.1% formic acid
How it was run: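 Retention times of pure standards were taken from adduct peaks that were selected by computer and manually inspected. Over 3 months, mixtures of ~100 molecules were run by HPLC–quadrupole time-of-flight mass spectrometry in positive and negative ionization mode. The Zorbax Extend-C18 column (2.1 × 50 mm, 1.8 μm) ran at 100 μL/min in water and acetonitrile, each containing 0.1% formic acid, with 40 μL dead volume and 900 μL dwell volume.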

Compound | RP-LC retention time [s]
NC(=O)C1CCN(C(=O)c2cn(-c3cccc(F)c3)nn2)CC1 | 608
Cc1cc(C)c(S(=O)(=O)N2CCc3c(c(-c4nnc(-c5ccccc5)o4)nn3C)C2)c(C)c1 | 1090
CC(NC(=O)CN1C(=O)C2CCCCN2c2ccc(S(=O)(=O)N3CCCC3)cc21)c1ccccc1 (stereo not drawn) | 956
COc1ccc(C(C)NC(=O)C2CCN(c3cncnc3N3CCCCC3)CC2)cc1 (stereo not drawn) | 685
CCCC(=O)Nc1nc(-c2ccc3c(c2)NC(=O)C(C)O3)c(C)s1 (stereo not drawn) | 812
O=C(Cn1cc(S(=O)(=O)c2ccc(F)cc2)c2ccccc21)NC1CC1 | 748
O=C(NC1CCN(c2cc(-c3ccc(F)cc3)[nH]n2)C1)c1cccc(Cl)c1 (stereo not drawn) | 774
Cc1noc2nc(CCC(=O)Nc3ccc(Cl)cc3F)nc(N3CCOCC3)c12 | 818
Cc1cc(C(=O)NC2CCCCCC2)n[nH]1 | 724
CN1C(=O)C(CC(=O)NC2CCCC2)Sc2ncccc21 (stereo not drawn) | 668
Cc1ccc(NC(=O)N2CCC(n3cnc4ccc(F)cc4c3=O)CC2)c(C)c1 | 790
CCCCNC(=O)c1sc(Nc2cccc(C)n2)nc1C | 777
CCN(CC)CCNS(=O)(=O)c1cc(-c2[nH]ncc2C(=O)N2CCCC2)oc1C | 565
COc1ccc(Cl)cc1NC(=O)c1n[nH]c2ccccc12 | 1010
CCOC(=O)C1=C(CN2CCN(c3ccccn3)CC2)NC(=O)NC1c1cccs1 (stereo not drawn) | 919
COc1ccc(-c2cc(N3CCN(C(=O)NCCC(C)C)CC3)ncn2)cc1 | 670
CCn1ccc2cc(S(=O)(=O)N3CCCC(C(=O)NCCN4CCCCC4)C3)ccc21 (stereo not drawn) | 668
O=C(CN1C(=O)C(C(=O)N2CCCCCC2)Sc2ccccc21)NC1CCCCC1 (stereo not drawn) | 1090
CC1(C)COc2ccc(NC(=O)NCc3cccc4ccccc34)cc2NC1=O | 602
COC(=O)c1cccc(NC(=O)Nc2ccc3c(c2)N(C(=O)c2ccccc2)CC3)c1 | 921
CC(C)(C)c1noc(-c2ccc(-n3cnc(C(=O)N4CCCCC4)c3)nc2)n1 | 742
COc1ccc(NC(=O)CN2CCc3[nH]c4c(F)c(Cl)ccc4c(=O)c3C2)c(OC)c1 | 637

Compound | RP-LC retention time [s]
CCCN1C(=O)CCc2c(C)nc(-c3ccc(C)cc3)nc21 | 1150
Cc1ccc(CSc2nnc3c(S(=O)(=O)N4CCN(c5ccc(F)cc5)CC4)cccn23)cc1 | 998
COCCNC(=O)Nc1ccc(CCc2nc3ccccc3n2C)cc1 | 583
COc1ccc(CSc2nccc3c2ccn3CC(=O)N2CCN(c3ccccc3)CC2)cc1 | 786
CCOC(=O)C1CCN(C(=O)C2c3ccccc3C(=O)N3CCc4cc(OC)c(OC)cc4C23)CC1 (stereo not drawn) | 766
O=c1[nH]c2ccc(NCc3ccccc3Cl)cc2[nH]1 | 641
Cn1c(=O)c(N2CCCC(C(=O)N3CCN(Cc4ccc5c(c4)OCO5)CC3)C2)nc2ccccc21 (stereo not drawn) | 674
CCc1nnc2cc(N3CCN(C(=O)Nc4ccccc4Cl)CC3)cnn12 | 548
Cc1cc(Cl)ccc1NC(=O)N1CCC2(CC1)c1nccn1CCN2C | 612
Cc1ccc2nc(-c3ccc(C)c(NC(=O)C4CCCCC4)c3)[nH]c2c1 | 735
CCc1ccc(NC(=O)C2CCc3nc(N(CC)CC)ncc3C2)cc1 (stereo not drawn) | 799
Cn1nccc1C(=O)N1CCc2c([nH]c3ccccc23)C1c1ccc(F)cc1 (stereo not drawn) | 995
COc1ccc(OCC(=O)N2CCCC2c2nc(-c3ccccc3)no2)cc1 (stereo not drawn) | 930
COCCOc1ccc2c(c1)ncn2-c1ccc2cccc(N3CCC(N)CC3)c2n1 | 645
CC(=O)N1CCN(S(=O)(=O)c2cccc(C(=O)NCc3cccnc3)c2)CC1 | 533
Cc1cc(=O)n(CC(=O)Nc2ccccc2)c(N2CCCC2)n1 | 622
Cc1cc(C(=O)N2CCCCC2)c2c(=O)n(Cc3nc(-c4ccccc4)oc3C)c(=O)n(C)c2n1 | 1020
Cc1ncsc1CN1CCC(Oc2ccccc2-c2nc(-c3ccccc3)no2)C1 (stereo not drawn) | 732
Cc1cc(C2CCCN2C(=O)Nc2ccccc2Br)on1 (stereo not drawn) | 867
O=C(Cc1c[nH]c2ccccc12)NC1CCN(c2cc(-c3ccc(Cl)cc3)[nH]n2)C1 (stereo not drawn) | 743
CCOC(=O)C(=O)Nc1ccc(-c2nc(-c3cc(C)ccc3C)co2)cc1 | 1180
Cc1ccc(CNC(=O)Cn2cccc2-c2nc(-c3ccccc3)cs2)o1 | 1050

Compound | RP-LC retention time [s]
COc1c(C(=O)NCc2ccc3c(c2)OCO3)sc2ccc(Cl)cc12 | 1070
CCN1CCN(Cc2ccc(-c3cc4c(N[C@H](C)c5ccccc5)ncnc4[nH]3)cc2)CC1 | 628
O=C(Nc1nccnc1C(=O)NCc1ccncc1)c1ccccc1 | 590
O=C(Cn1ccc2ccc(N3CCOCC3)nc21)N1CCN(c2ccccc2)CC1 | 879
CCn1ccc(C(=O)Nc2ccc3ncnc(N4CCCC4)c3c2)n1 | 616
Cc1cccc(NC(=O)Cn2c(-c3cnccn3)nc(C)c(C)c2=O)c1 | 707
CCN1C(=O)COc2cc(-c3noc(C(=O)NC4CCCC4)n3)ccc21 | 936
O=[N+]([O-])c1ccc(CSc2nnc(-c3ccncc3)n2-c2ccccc2)cc1 | 706
Cc1cc(Cl)ccc1OCc1nc(-c2ccc3c(c2)ncn3CCC(=O)N2CCCC2)no1 | 889
O=C(Cc1csc(SCC(=O)c2cccs2)n1)NCCc1c[nH]c2ccccc12 | 806
O=C(NCCC1CCN(C(=O)Nc2cc(F)cc(F)c2)CC1)c1cccs1 | 861
CCc1ccc(NC(=O)Cn2c(=O)n(-c3cccc(C)c3)c(=O)c3c2cc(C)n3C)cc1 | 645
O=C(CCc1nnn2c1CN(C(=O)NC1CCCCC1)CC2)N1CCOCC1 | 634
Cc1ccc(-c2csc(Nc3ccc(Br)cn3)n2)cc1C | 1340
Cc1nnc2cc(N3CCN(C(=O)c4cccc(N(C)C)c4)CC3)cnn12 | 496
COc1cccc(CNC(=O)Cn2c(N(C)Cc3ccccc3)nc(C)cc2=O)c1OC | 660
CC1CCN(C(=O)CN2C(=O)C3CCCCN3c3ccc(C(=O)N4CCCC4)cc32)CC1 (stereo not drawn) | 815
Cc1ccc(S(=O)(=O)N2CCCC(Cn3c(C4CC4)nc4cccnc43)C2)cc1 (stereo not drawn) | 790
CN(C)C(=O)CCc1ccc2c(c1)CN(C(=O)C1COc3ccccc3O1)CCO2 (stereo not drawn) | 790
Cc1ccccc1-c1nc(-c2ccc3c(c2)nc(C)c(=O)n3C)no1 | 1120
O=S(=O)(c1ccccc1Cl)N1CCN(c2ccc(Nc3ccccn3)nn2)CC1 | 593
Cc1ccc(-c2cc3c(=O)n(Cc4noc(CN5CCN(C)CC5)n4)ccn3n2)cc1 | 659

Compound | RP-LC retention time [s]
Cc1ccc(N2CCC(NC(=O)Nc3ccccc3)C2=O)cc1 (stereo not drawn) | 811
CCCn1cc(CCNS(=O)(=O)c2cccc(C#N)c2)c2cccnc21 | 789
Cc1ccc(C(=O)N2CCC[C@H]2c2nc(-c3ccccc3)n[nH]2)s1 | 740
CCOC(=O)c1sc(NC(=O)c2cc3ccccc3o2)nc1C | 974
O=C(COc1ccc([N+](=O)[O-])cc1)Nc1ccc(S(=O)(=O)N2CCCCC2)cc1 | 886
COc1cc(NC(=O)NC2COc3ccccc3C2)cc(OC)c1OC (stereo not drawn) | 773
CC(C)n1nnc2cc(C(=O)N(C)CC(=O)Nc3ccc(F)cc3F)ccc21 | 744
O=C(Nc1ccc(Cl)c(N2CCCS2(=O)=O)c1)c1ccno1 | 676
CCOc1ccccc1NC(=O)c1c(O)c2cccnc2n(-c2ccc(F)cc2)c1=O | 1280
OC(CNCc1ccc(-c2ccc(Br)cc2)o1)c1ccccc1 (stereo not drawn) | 755
CCOC(=O)c1noc2ncnc(Nc3ccc(CN4CCCCC4)cc3)c12 | 593
O=C1NCCOCCN(C(=O)COc2ccccc2)[C@H]2CCC[C@@H]12 | 683
COc1cccc(CNC(=O)Cn2cnc3c(sc4nc(-c5ccccc5)ccc43)c2=O)c1 | 975
CCOC(=O)c1c(S(=O)(=O)N2CCC(C(=O)Nc3ccc(C)cc3C)CC2)c(C)n(CC)c1C | 928
CCc1ccc(CN2C(=O)c3c(C(=O)OC)ncn3CC2(C)C(=O)NCc2ccccc2)cc1 (stereo not drawn) | 801
Nc1ncnc(NC2CCCC2)c1[N+](=O)[O-] | 679
COc1ccc(-c2nc(N(C)Cc3ccco3)c3ccccc3n2)cc1 | 765
COc1cc(OC)cc(C(=O)Nc2nc(-c3ccc4c(c3)N(C)C(=O)C(C)O4)cs2)c1 (stereo not drawn) | 1040
Cc1nc(-c2ccncc2)nc2c1CCC(=O)N2CC1CCCCC1 | 918
CC(C)CNC(=O)CCn1c(=O)c2ccccc2n2c(=O)n(Cc3ccc(F)cc3)nc12 | 870
Cc1ccc(CN2CCN(C(=O)c3cccc4[nH]cc(CN5CCSCC5)c34)CC2)cc1 | 593
NC(=O)C1CCN(C(=O)c2nnn(-c3ccccc3Cl)c2-c2ccncc2)CC1 | 603
